The target of series [1] is T1, Human NaV1.7 (Homo sapiens, UniProt Q15858).
T1 construct: expressed in transfected cells; host or cells: Spiking HEK cells (without Kir2.1 transfection)
Kind of series: Ionworks Barracuda (IWB) automated patch clamp assay. Format: cell-based. The note with it: human NaV1.7 currents in HEK cells, population patch clamp, state- and use-dependent voltage protocol; read-out: hNaV1.7 IWB-U IC50. As for the experimental part:
Ionworks Barracuda (IWB) Automated Patch Clamp Assay (Same Protocol for Both Hu Man and Mouse)
Human NaV1.7 currents were recorded in population patch-clamp mode with the IWB automated electrophysiology system (Molecular Devices, LLC, Sunnyvale, Calif.). Spiking HEK cells (without Kir2.1 transfection) were cultured and prepared for recordings as previously described for IonWorks Quattro testing^1. The external solution consisted of the following (in mM): NaCl 140, KCl 5, CaCl2 2, MgCl2 1, HEPES 10, and glucose 11, pH 7.4, with N-methyl-D-glucamine at 320 mOsmol. […] From a holding potential of −110 mV, currents were elicited by a train of 26 depolarizations of 150 ms duration to −20 mV at a frequency of 5 Hz. Cells were then clamped to −20 mV for a period of 4 minutes in the presence of a single concentration of test compound. Following this compound incubation period, cells were clamped to −110 mV for three seconds to recover unbound channels and put through the same 26 pulse voltage protocol as above. Peak inward current during the 26th pulse to −20 mV in the presence of compound was divided by the peak inward current evoked by the 26th pulse to −20 mV in the absence of compound to determine percent inhibition. Concentration-response curves of percent inhibition as a function of concentration were generated to calculate IC50 values as described in Kornecook, T. J.; Yin, R.; Altmann, S.; et al. Pharmacologic Characterization of AMG8379, a Potent and Selective Small Molecule Sulfonamide Antagonist of the Voltage-Gated Sodium Channel NaV1. 7.
The potency of the compounds of the present invention were evaluated on human NaV1.7 channels using the above described IonWorks Barracuda automated electrophysiology platform that evaluates the ability of compounds to block sodium conductance through NaV1.7 channels. A voltage-protocol that prosecutes both state-dependent as well as use-dependent inhibition was used as these modes of action are thought to be more relevant for the native state of NaV1.7 channels in pain sensing neurons in vivo.

Series [2] relates to CYP3A4. Kind of series: Human CYP 3A4 induction assay (mRNA, cryopreserved human hepatocytes). Type of series: in vitro ADME. As to the method: Human CYP 3A4 Induction Assay
Cryopreserved human hepatocytes were seeded in 96-well collagen coated plates at 70,000 cells per well in hepatocyte plating media (HPM, final concentrations: 1× Dulbecco's Modified Eagle's Medium, 0.1 μM dexamethasone, 10% fetal bovine serum, 1× ITS, 1×PSG) followed by incubation at 37° C. under 5% CO2 and 90% relative humidity for 2 days to allow hepatocytes to form a confluent layer. On Day 3, hepatocytes were treated with either test compound or rifampin (20 μM, positive control for CYP3A induction) prepared in hepatocyte incubation media ((HIM, final concentrations: 1× William's Medium E, 0.1 μM dexamethasone, 1×ITS, 1×PSG). Treatment was performed for 72 hours with either 2 concentrations (2 μM or 10 μM) or a range of concentrations (0.001 μM to 100 μM) of the test compound to obtain full dose-response curve. Fresh media containing the relevant concentrations of the test compound was replaced every day until the samples were processed. After 72 hours of incubation, samples were processed for mRNA analysis using bDNA technology using manufacturer's instructions (Affymetrix, Fremont, Calif.). Cell viability was tested at the end of the experiment using MTT assay kit (Roche Diagnostics, Basel, Switzerland). Data was analyzed and presented as percent of control (POC) and Emax and EC50 obtained when appropriate according to guidance from Center for Drug Evaluation and Research (CDER), 2006, Guidance for Industry, Drug Interaction Studies—Study Design, Data Analysis, and Implications for Dosing and Labeling.
Cryopreserved human hepatocytes were seeded in 96-well collagen coated plates at 70,000 cells per well in hepatocyte plating media (HPM, final concentrations: 1× Dulbecco's Modified Eagle's Medium, 0.1 μM dexamethasone, 10% fetal bovine serum, 1×ITS, 1×PSG) followed by incubation at 37° C. under 5% CO2 and 90% relative humidity for 2 days to allow hepatocytes to form a confluent layer. On Day 3, hepatocytes were treated with either test compound or rifampin (20 μM, positive control for CYP3A induction) prepared in hepatocyte incubation media ((HIM, final concentrations: 1× William's Medium E, 0.1 μM dexamethasone, 1×ITS, 1×PSG). Treatment was performed for 72 hours with either 2 concentrations (2 μM or 10 μM) or a range of concentrations (0.001 μM to 100 μM) of the test compound to obtain full dose-response curve. Fresh media containing the relevant concentrations of the test compound was replaced every day until the samples were processed. After 72 hours of incubation, samples were processed for mRNA analysis using bDNA technology using manufacturer's instructions (Affymetrix, Fremont, Calif.). Cell viability was tested at the end of the experiment using MTT assay kit (Roche Diagnostics, Basel, Switzerland). Data was analyzed and presented as percent of control (POC) and Emax and EC50 obtained when appropriate, as described in Halladay, J. et al, 2012, An “all-inclusive” 96-well cytochrome P450 induction method: Measuring enzyme activity, mRNA levels, protein levels, and cytotoxicity from one well using cryopreserved human hepatocytes, Pharmacological and Toxicological Methods, 66:270-275.
The cytochrome P450 (CYP) is a well-known superfamily of enzymes that are responsible for the oxidative and reductive metabolic transformation of medications used in clinical practice. In addition, the CYP enzymes are commonly associated with causing many clinically relevant drug-drug interactions. Of the CYP enzymes, CYP3A4 is not only the most prevalent CYP enzyme in the liver and intestine, but is responsible for metabolism and elimination of approximately 50% of marketed drugs. In addition, CYP3A4 activity can be induced (or increased) or inhibited (decreased) in response to administration of certain drugs, thereby affecting concentrations of their own or certain concomitant drugs present in the body. […]

The mark [3] stands for this setting: human hepatocytes, 10 uM test compound, 72 hours, mRNA, percent of control (rifampin positive control).

T1 sequence (Q15858 whole entry): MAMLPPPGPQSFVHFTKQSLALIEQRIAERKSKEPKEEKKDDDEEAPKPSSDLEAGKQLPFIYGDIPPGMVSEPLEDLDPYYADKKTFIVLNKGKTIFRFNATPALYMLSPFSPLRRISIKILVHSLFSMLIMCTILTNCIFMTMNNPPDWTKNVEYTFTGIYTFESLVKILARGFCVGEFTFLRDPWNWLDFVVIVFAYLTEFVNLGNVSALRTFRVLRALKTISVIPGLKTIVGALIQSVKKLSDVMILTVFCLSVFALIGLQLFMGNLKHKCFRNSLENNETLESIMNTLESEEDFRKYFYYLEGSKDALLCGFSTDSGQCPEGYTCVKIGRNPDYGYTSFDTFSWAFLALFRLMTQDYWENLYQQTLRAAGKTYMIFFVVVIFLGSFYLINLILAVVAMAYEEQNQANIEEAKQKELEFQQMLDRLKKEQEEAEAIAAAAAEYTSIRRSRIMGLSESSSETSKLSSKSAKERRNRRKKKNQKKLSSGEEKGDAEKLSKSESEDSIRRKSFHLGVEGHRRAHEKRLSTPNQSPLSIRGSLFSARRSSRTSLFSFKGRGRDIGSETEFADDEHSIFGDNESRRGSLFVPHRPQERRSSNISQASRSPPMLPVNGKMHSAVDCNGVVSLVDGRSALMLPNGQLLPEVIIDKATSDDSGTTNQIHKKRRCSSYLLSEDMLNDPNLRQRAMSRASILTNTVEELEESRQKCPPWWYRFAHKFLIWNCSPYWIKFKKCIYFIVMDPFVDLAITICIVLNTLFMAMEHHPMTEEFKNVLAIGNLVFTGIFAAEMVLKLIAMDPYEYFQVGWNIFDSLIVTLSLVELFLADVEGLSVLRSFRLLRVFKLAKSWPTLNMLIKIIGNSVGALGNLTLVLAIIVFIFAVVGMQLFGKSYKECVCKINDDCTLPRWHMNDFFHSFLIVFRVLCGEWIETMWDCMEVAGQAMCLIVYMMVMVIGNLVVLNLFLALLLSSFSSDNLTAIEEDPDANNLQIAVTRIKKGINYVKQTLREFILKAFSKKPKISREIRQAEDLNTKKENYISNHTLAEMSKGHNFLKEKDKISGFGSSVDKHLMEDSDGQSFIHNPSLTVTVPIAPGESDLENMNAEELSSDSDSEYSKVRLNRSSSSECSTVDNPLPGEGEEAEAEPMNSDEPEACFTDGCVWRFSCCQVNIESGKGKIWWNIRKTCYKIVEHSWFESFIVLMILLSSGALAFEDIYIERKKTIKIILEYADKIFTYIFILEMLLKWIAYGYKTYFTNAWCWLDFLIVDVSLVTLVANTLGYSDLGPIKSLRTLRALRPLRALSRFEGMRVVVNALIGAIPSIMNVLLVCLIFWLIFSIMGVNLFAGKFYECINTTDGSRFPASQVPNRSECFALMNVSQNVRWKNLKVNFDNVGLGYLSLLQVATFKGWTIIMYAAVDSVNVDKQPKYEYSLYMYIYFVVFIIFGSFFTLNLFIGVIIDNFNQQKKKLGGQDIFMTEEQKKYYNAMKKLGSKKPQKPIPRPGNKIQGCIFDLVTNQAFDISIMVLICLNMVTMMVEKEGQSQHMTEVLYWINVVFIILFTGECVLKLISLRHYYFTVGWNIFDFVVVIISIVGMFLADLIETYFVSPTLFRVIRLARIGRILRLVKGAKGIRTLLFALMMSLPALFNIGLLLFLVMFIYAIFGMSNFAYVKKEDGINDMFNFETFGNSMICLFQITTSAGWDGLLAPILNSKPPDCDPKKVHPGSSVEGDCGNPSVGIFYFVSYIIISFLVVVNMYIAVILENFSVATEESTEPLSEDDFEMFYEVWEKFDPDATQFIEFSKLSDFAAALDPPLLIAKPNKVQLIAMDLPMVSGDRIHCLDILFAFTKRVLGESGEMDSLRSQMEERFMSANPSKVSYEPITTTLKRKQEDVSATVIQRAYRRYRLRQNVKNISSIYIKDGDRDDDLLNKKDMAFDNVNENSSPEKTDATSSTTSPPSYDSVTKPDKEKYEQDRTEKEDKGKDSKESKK

In the case of `COc1cc([C@H]2C[C@@H]2COC(F)(F)F)c(F)cc1-n1c(=O)ccc2cc(S(=O)(=O)Nc3ccon3)ccc21` (atropisomer, axis not shown; (P)) [Example 33, (P)-1-(5-fluoro-2-methoxy-4-((1S,2S)-2-((trifluoromethoxy)methyl)cyclopropyl)phenyl)-N-(isoxazol-3-yl)-2-oxo-1,2-dihydroquinoline-6-sulfonamide], the IC50 in series [1] is 4 nM. The “CYP3A4 mRNA Induct Hu 10 uM POC” value in series [2] (setting [3]) was found to be 139.9%.

`COc1cc([C@@H]2C[C@H]2C(F)(F)F)c(Cl)cc1-n1c(=O)ccc2cc(S(=O)(=O)Nc3cccnn3)ccc21` (atropisomer, axis not shown; (P)) [Example 14, (P)-1-(5-chloro-2-methoxy-4-((1R,2R)-2-(trifluoromethyl)cyclopropyl)phenyl)-2-oxo-N-(pyridazin-3-yl)-1,2-dihydroquinoline-6-sulfonamide]: the IC50 in series [1] turned out to be 19 nM. The “CYP3A4 mRNA Induct Hu 10 uM POC” value in series [2] (setting [3]) is on record as 46.59%.

Take `COc1cc([C@@H]2C[C@H]2C(F)(F)F)c(C)cc1-n1c(=O)ccc2cc(S(=O)(=O)Nc3ccon3)ccc21` (atropisomer, axis not shown; (P)) [Example 26, (P)-N-(isoxazol-3-yl)-1-(2-methoxy-5-methyl-4-((1R,2R)-2-(trifluoromethyl)cyclopropyl)phenyl)-2-oxo-1,2-dihydroquinoline-6-sulfonamide]: the IC50 in series [1] is 19 nM. For the same compound, the “CYP3A4 mRNA Induct Hu 10 uM POC” value in series [2] (setting [3]) was determined as 35.39%.

Regarding `COc1cc([C@@H]2C[C@H]2COC(F)(F)F)c(F)cc1-n1c(=O)ccc2cc(S(=O)(=O)Nc3ccon3)ccc21` (atropisomer, axis not shown; (P)) [Example 32, (P)-1-(5-fluoro-2-methoxy-4-((1R,2R)-2-((trifluoromethoxy)methyl)cyclopropyl)phenyl)-N-(isoxazol-3-yl)-2-oxo-1,2-dihydroquinoline-6-sulfonamide], the IC50 in series [1] is 9 nM. Also, the “CYP3A4 mRNA Induct Hu 10 uM POC” value in series [2] (setting [3]) is recorded as 64.54%.

For the compound `COc1cc([C@@H]2C[C@H]2C(F)(F)F)c(F)cc1-n1c(=O)ccc2cc(S(=O)(=O)Nc3nncs3)ccc21` (atropisomer, axis not shown; (P)) [Example 40, (P)-1-(5-fluoro-2-methoxy-4-((1R,2R)-2-(trifluoromethyl)cyclopropyl)phenyl)-2-oxo-N-(1,3,4-thiadiazol-2-yl)-1,2-dihydroquinoline-6-sulfonamide], in series [1], the concentration for half-maximal inhibition (IC50) was 8 nM.

As for `COc1cc([C@@H]2C[C@H]2C(F)(F)F)c(F)cc1-n1c(=O)ccc2cc(S(=O)(=O)Nc3ccon3)c(F)cc21` (single isomer, unassigned) [Example 45], in series [1], the IC50 was found to be 8 nM. For the same compound, the “CYP3A4 mRNA Induct Hu 10 uM POC” value in series [2] (setting [3]) was determined as 24.57%.

On to `COc1cc([C@H]2C[C@H]2C2CC2)c(F)cc1-n1c(=O)ccc2cc(S(=O)(=O)Nc3ccon3)ccc21` (atropisomer, axis not shown; (P)) [Example 30, (P)-1-(4-((1S,2S)-[1,1′-bi(cyclopropan)]-2-yl)-5-fluoro-2-methoxyphenyl)-N-(isoxazol-3-yl)-2-oxo-1,2-dihydroquinoline-6-sulfonamide], for which the IC50 in series [1] was 26 nM. In addition, in series [2] (hepatocytes), the “CYP3A4 mRNA Induct Hu 10 uM POC” value is 60.34%.

Values taken from patent US11807634B2, “Cyclopropyl dihydroquinoline sulfonamide compounds” (AMGEN INC., priority 2020, dated 2023).
